Residue numbers refer to the chain shown, from its start.
Key:
Type in all cases: cell-based
ERα = target: T1, ERα (Homo sapiens, UniProt P03372); assay: Degradation of ERα in MCF-7 cells, Western blot; conditions: indicated concentrations
T1 construct: endogenous in cells; host or cells: MCF-7
T1 sequence (P03372 1-595): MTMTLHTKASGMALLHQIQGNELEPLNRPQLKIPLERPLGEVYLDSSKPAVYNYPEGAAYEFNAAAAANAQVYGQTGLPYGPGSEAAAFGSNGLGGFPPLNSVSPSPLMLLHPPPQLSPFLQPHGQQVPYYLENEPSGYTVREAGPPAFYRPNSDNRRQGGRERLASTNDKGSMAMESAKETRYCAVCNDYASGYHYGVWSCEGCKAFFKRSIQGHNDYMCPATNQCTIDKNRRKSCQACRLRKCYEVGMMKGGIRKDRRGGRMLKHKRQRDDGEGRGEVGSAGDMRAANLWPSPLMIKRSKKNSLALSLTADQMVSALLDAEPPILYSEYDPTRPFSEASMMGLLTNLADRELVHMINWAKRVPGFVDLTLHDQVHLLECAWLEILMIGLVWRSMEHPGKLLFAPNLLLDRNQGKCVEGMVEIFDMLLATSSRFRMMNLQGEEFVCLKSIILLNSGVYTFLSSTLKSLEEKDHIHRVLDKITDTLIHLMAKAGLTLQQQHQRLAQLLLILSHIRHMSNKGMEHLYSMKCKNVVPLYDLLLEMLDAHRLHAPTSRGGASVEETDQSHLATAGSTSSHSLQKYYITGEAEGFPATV
Description: MCF-7 were treated with the indicated compounds and ERα protein levels were assessed by Western blot (top panel). Actin served as a loading control (bottom panel). Quantification of the western blot is shown on the right.

ERα-Y537S = target: T2, ERα-Y537S (Homo sapiens, UniProt P03372, Y537S); assay: Degradation of HA-ERα-Y537S mutant in transfected HEK293 cells, Western blot; conditions: HEK293 cells transfected with HA-ERα-Y537S, Western blot relative to actin
T2 construct: host or cells: HEK293
T2 sequence (P03372 1-595 Y537S): T1 sequence (P03372 1-595) with Y537S
Source text: HEK293 cells transfected with the HA-ERα-Y537S mutant were stimulated with the indicated compounds and HA-ERα-Y537S protein levels assessed by Western blot (left) and quantitated relative to actin (right).

[1] = tested on: Tamoxifen-resistant MCF-7 cells (TamR) and long-term estrogen-deprived MCF-7 cells (LTED); assay: Cell viability in cell line models of endocrine resistance after 5 days; conditions: TamR and LTED MCF-7 cells, normalized to DMSO-treated cells
Source text: Cells were a gift from Dr. Donald McDonnell (Duke University).

CCCCN(C)C(=O)CCCCCCCCCCCC1=CCC2(CO)COC(c3ccc(O)cc3)C1C2 (stereo not drawn) [AB-82P, N-butyl-12-(1-(hydroxymethyl)-4-(4-hydroxyphenyl)-3-oxabicyclo[3.3.1]non-6-en-6-yl)-N-methyldodecanamide]
degradation of ERα protein levels (ERα): Dose-dependent degradation of ERα | degradation of HA-ERα-Y537S protein levels (ERα-Y537S): induced degradation of ERα-Y537S | effect on cell viability in models of endocrine resistance [1]: inhibitory effects
